Measurements: patent US8362010B2, “Benzenesulfonanilide compounds suitable for treating disorders that respond to modulation of the serotonin 5-HT6 receptor” (Abbott GmbH & Co. KG, priority 2009, dated 2013)
Counter-ions that a name gives are not always drawn.

target: T1, h-5-HT6 receptor (Homo sapiens, UniProt P50406); test: 5-HT6 receptor binding assay (displacement of [3H]-LSD); conditions: membranes of HEK293 cells expressing h-5-HT6; 1 nM [3H]-LSD
T1 construct: expressed in transfected cells; host or cells: HEK293
T1 sequence (P50406 whole entry): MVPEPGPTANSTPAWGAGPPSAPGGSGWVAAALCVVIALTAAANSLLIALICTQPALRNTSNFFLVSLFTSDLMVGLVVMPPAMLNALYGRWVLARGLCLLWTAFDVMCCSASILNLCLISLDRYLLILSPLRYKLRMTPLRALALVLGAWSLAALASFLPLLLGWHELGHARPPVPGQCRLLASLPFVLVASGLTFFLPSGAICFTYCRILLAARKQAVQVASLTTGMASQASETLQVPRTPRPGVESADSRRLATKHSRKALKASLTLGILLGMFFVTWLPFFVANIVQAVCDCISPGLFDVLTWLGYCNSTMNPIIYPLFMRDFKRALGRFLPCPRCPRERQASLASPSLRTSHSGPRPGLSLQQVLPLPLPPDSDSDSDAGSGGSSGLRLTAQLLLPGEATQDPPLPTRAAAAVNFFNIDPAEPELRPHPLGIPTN
Experimental: Displacement of radioligands binding to the following cloned human receptors
Cells from stable clonal cell lines expressing the corresponding receptor (5-HT6, α1-adrenergic, dopamine D2 or histamine H1 receptors) were washed with PBS (w/o Ca^++, Mg^++) and harvested in PBS with 0.02% EDTA. […] The pellets were stored at −80° C. until use. For membrane preparation, the thawed cell pellet was resuspended in ice-cold sucrose buffer (0.25 M sucrose, 10 mM Hepes (pH 7.4), 1 mM Phenylmethylsulfonyl fluoride (PMSF) in DMSO, 5 μg/ml Pepstatin-A, 3 mM EDTA, 0.025% Bacitracin) and homogenized with a Branson Sonifier W-250 (Settings: Timer 4; Output Control 3; Duty Cycle constant; 2 to 3 cycles). Cell disruption was checked with the aid of a microscope. […] The sucrose buffer supernatant was then centrifuged at 60.000 g for 1 h at 4° C. (Beckman Ultrazentrifuge XL 80). The pellet was resuspended in 30 ml ice-cold Tris buffer (20 mM TRIS (pH 7.4), 5 μg/ml Pepstatin A, 0.1 mM PMSF, 3 mM EDTA) by pipetting through a 10 ml serological pipet and centrifuged for 1 h at 4° C. at 60.000 g. A final resuspension was performed in a small volume of ice-cold Tris buffer (see above) by pressing through a serological pipet followed by ultrasonic treatment with a Branson Sonifier W-250 (Settings: Timer 1; Output Control 3; Duty Cycle constant; 1 cycle). Protein concentration was determined (BCA-Kit; Pierce) and aliquots stored at −80° C. or in liquid nitrogen for long-term storage.
All receptor binding experiments were carried out in the corresponding assay buffer in a total volume of 200 μl in the presence of various concentrations of test compound (10^−5 M to 10^−9 M, tenfold serial dilution, duplicate determinations). The assays were terminated by filtration on polyethylenimine (PEI 0.1% or 0.3%) presoaked Packard Unifilter Plates (GF/C or GF/B) with a Tomtec MachIII U 96 well-plate harvester. After the plates had been dried for 2 h at 55° C. in a drying chamber scintillation cocktail (BetaPlate Scint; PerkinElmer) was added. Radioactivity was measured in a Microbeta Trilux two hours after the addition of the scintillation mixture. Data derived from liquid scintillation counting were analysed by iterative non-linear regression analysis with the use of the Statistical Analysis System (SAS): a program similar to “LIGAND” as described by Munson and Rodbard (Analytical Biochemistry 107, 220-239 (1980). […]
Data derived from liquid scintillation counting were analyzed by iterative non-linear regression analysis with the use of the Statistical Analysis System (SAS): a program similar to “LIGAND” as described by Munson and Rodbard (Anal. Biochem. 1980, 107, 220-239). […] IC50, nH and Ki values were expressed as geometrical mean.

Ki [µM] | Structure (SMILES)
< 0.01 | COc1ccc(NS(=O)(=O)c2cccc(OC(F)F)c2)cc1N1CCCNCC1 [Example 1, N-(3-[1,4]Diazepan-1-yl-4-methoxy-phenyl)-3-difluoromethoxy-benzenesulfonamide hydrochloride]
< 0.01 | COc1ccc(NS(=O)(=O)c2ccccc2OC(F)F)cc1N1CCCNCC1 [Example 3, N-(3-[1,4]Diazepan-1-yl-4-methoxy-phenyl)-2-difluoromethoxy-benzenesulfonamide hydrochloride]
< 0.05 | Cc1ccc(NS(=O)(=O)c2cccc(OC(F)F)c2)cc1N1CCCNCC1 [Example 7, N-(3-[1,4]Diazepan-1-yl-4-methyl-phenyl)-3-difluoromethoxy-benzenesulfonamide hydrochloride]
< 0.01 | Cc1ccc(NS(=O)(=O)c2ccccc2OC(F)F)cc1N1CCCN(C)CC1 [Example 8, 2-Difluoromethoxy-N-[4-methyl-3-(4-methyl-[1,4]diazepan-1-yl)-phenyl]-benzenesulfonamide hydrochloride]
